Experimental data published in paper PMC6429712, “Discovery of a natural small-molecule compound that suppresses tumor EMT, stemness and metastasis by inhibiting TGFβ/BMP signaling in triple-negative breast cancer” (Journal of Experimental & Clinical Cancer Research : CR, 2019).

Key:
Assay in all cases: in vitro kinase activity assay
Format in all cases: biochemical
BMPR1B = BMPR1B (Homo sapiens, UniProt O00238)
TGFBR1 = target: T1, TGFBR1 (Homo sapiens, UniProt P36897)
T1 sequence (P36897 34-503): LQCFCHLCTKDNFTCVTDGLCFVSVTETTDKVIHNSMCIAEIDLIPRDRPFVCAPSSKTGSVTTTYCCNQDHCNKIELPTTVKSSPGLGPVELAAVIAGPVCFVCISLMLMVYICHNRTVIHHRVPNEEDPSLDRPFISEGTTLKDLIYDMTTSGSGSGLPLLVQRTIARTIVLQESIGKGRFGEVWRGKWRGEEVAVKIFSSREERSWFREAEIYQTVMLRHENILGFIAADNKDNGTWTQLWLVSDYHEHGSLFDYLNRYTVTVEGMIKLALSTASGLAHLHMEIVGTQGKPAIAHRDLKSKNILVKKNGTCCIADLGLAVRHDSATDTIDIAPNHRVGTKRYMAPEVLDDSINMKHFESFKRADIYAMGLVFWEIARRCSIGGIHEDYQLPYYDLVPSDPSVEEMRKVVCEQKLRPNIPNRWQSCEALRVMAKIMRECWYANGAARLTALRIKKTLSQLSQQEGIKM

BMPR2 = target: T2, BMPR2 (Homo sapiens, UniProt Q13873)
T2 sequence (Q13873 27-1038): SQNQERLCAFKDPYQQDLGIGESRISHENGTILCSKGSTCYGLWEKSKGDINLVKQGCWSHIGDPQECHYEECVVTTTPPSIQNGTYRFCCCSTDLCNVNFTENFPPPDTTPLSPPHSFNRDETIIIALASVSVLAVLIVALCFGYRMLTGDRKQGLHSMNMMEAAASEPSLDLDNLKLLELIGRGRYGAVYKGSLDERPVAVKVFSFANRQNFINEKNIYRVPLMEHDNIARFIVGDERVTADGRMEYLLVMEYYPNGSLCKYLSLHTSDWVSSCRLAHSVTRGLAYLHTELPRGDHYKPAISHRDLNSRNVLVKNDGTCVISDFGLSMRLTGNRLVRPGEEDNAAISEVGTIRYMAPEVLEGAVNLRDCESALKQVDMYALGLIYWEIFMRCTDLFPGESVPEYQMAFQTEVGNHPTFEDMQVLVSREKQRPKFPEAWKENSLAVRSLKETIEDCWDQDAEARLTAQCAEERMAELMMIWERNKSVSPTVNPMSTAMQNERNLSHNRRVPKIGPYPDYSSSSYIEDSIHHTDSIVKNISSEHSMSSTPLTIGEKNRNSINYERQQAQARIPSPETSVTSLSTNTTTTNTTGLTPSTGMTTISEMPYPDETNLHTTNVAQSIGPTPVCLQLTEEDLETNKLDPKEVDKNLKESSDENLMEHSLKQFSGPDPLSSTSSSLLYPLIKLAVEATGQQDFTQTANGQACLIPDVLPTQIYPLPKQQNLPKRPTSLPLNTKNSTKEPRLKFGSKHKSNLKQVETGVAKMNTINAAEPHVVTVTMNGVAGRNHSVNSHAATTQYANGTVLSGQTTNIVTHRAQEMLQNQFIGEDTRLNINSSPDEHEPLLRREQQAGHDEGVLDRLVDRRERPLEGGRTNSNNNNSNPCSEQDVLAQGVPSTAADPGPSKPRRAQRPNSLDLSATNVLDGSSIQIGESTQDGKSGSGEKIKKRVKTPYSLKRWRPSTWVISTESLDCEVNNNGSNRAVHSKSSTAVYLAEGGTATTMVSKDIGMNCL

BMPR1A = BMPR1A (Homo sapiens, UniProt P36894)
Sequence of BMPR1A (P36894 24-532): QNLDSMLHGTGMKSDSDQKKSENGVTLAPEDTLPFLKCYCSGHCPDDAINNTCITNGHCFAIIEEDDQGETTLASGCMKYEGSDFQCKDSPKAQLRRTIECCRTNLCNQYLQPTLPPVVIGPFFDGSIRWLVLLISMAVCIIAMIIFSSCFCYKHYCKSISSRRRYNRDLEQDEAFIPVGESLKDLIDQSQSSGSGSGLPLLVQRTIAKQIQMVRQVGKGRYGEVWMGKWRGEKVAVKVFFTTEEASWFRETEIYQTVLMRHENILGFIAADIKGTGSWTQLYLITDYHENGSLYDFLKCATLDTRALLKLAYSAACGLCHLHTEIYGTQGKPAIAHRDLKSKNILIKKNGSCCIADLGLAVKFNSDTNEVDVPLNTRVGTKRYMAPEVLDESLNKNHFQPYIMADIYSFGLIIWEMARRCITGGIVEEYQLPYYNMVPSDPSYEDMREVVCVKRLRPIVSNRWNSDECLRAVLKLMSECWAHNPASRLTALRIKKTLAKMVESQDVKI

Sequence of BMPR1B (O00238 14-502): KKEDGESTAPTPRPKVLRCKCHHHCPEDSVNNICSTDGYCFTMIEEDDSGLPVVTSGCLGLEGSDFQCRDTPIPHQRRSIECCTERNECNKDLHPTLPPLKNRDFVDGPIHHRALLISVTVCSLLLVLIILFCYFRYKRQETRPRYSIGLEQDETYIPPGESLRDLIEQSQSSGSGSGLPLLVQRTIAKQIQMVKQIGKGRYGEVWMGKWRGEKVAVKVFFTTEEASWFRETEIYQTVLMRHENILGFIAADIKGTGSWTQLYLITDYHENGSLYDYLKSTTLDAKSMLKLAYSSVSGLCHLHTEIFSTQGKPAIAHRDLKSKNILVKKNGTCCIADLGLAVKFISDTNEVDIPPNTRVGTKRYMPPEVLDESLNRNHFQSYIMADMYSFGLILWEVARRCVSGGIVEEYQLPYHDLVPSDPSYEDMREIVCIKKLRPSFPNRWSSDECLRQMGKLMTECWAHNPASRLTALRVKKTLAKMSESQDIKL

Question: What does the source list for `O=C1Nc2ccc(O)cc2/C1=C\c1ccc(O)c(O)c1` [ZL170, (E)-3-(3,4-dihydroxybenzylidene)-5-hydroxyindolin-2-one]?
Answer: IC50 (BMPR1B): 1100 nM; IC50 (TGFBR1): 1040 nM; IC50 (BMPR2): 201 nM; IC50 (BMPR1A): 806 nM
